The first assay has as its target T1, PI3Kδ (Homo sapiens, UniProt O00329).
T1 construct: Full length p110 subunits of PI3k α, β and δ, N-terminally labeled with polyHis tag; polyHis (N); made in house; host or cells: Sf9 insect cells (baculovirus)
Briefly: PI3Kδ Alphascreen assay. The format is biochemical.
Conditions: not given
T1 sequence (P27986 whole entry partner, one chain of several): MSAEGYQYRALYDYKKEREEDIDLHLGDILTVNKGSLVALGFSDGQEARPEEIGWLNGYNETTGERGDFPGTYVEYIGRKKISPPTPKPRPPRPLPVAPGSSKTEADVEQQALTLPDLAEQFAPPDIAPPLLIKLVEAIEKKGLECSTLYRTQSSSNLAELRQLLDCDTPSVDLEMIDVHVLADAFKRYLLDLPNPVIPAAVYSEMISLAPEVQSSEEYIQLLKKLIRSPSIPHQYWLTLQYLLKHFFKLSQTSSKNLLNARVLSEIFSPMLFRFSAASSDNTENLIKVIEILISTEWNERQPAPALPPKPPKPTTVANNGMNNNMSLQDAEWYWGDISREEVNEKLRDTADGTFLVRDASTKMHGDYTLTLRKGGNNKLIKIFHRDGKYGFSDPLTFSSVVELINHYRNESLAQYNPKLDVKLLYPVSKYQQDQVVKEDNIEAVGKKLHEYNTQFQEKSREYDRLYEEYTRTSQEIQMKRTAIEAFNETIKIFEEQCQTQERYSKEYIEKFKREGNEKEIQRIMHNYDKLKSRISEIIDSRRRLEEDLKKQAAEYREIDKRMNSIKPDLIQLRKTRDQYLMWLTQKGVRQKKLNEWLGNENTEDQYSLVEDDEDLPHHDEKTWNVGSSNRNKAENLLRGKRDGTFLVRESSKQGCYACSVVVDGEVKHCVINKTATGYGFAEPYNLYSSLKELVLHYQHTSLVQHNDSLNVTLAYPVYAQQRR
Molecule `Cc1ccnc(-c2nc3cc(F)cc(F)c3c(Nc3cc(N4CCOCC4)ccc3S(C)(=O)=O)c2C)c1` [5,7-difluoro-3-methyl-2-(4-methyl-2-pyridinyl)-N-(2-(methylsulfonyl)-5-(4-morpholinyl)phenyl)-4-quinolinamine] gave a Ki of 0.821 nM.

The molecule `Cc1c(-c2cc(OC(F)(F)F)ccc2S(C)(=O)=O)nc2cc(F)cc(F)c2c1Nc1cncc(N2CCOCC2)c1` [5,7-difluoro-3-methyl-2-(2-(methylsulfonyl)-5-(trifluoromethoxy)phenyl)-N-(5-(4-morpholinyl)-3-pyridinyl)-4-quinolinamine] had a Ki of 4.18 nM.

On to `Cc1c(-c2cc(O)ccc2S(C)(=O)=O)nc2cc(F)ccc2c1Nc1cc(N2CCOCC2)cnc1N1CCOCC1` [3-(4-((2,5-di-4-morpholinyl-3-pyridinyl)amino)-7-fluoro-3-methyl-2-quinolinyl)-4-(methylsulfonyl)phenol], for which affinity was put at a Ki of 17.5 nM.

As to `CC(=O)N1CCN(c2nc3cc(F)cc(F)c3c(Nc3cncc(N4CCOCC4)c3)c2C)CC1` [2-(4-acetyl-1-piperazinyl)-5,7-difluoro-3-methyl-N-(5-(4-morpholinyl)-3-pyridinyl)-4-quinolinamine], the Ki amounted to 33.6 nM.

In the case of `CSc1cncc(-c2nc3cc(F)cc(F)c3c(Nc3cc(N4CCOCC4)cnc3N3CCOCC3)c2C)c1` [N-(2,5-di-4-morpholinyl-3-pyridinyl)-5,7-difluoro-3-methyl-2-(5-(methylsulfanyl)-3-pyridinyl)-4-quinolinamine], the Ki came out at 11.3 nM.

As for `Cc1c(N2CCN(C(=O)c3cccnc3)CC2)nc2cc(F)cc(F)c2c1Nc1cncc(N2CCOCC2)c1` [5,7-difluoro-3-methyl-N-(5-(4-morpholinyl)-3-pyridinyl)-2-(4-(3-pyridinylcarbonyl)-1-piperazinyl)-4-quinolinamine], the Ki was determined as 343 nM.

On to `Cc1c(-c2cc([N+](=O)[O-])ccc2F)nc2cc(F)ccc2c1Nc1cc(N2CCOCC2)cnc1N1CCOCC1` [N-(2,5-di-4-morpholinyl-3-pyridinyl)-7-fluoro-2-(2-fluoro-5-nitrophenyl)-3-methyl-4-quinolinamine], for which the Ki amounted to 11.2 nM.

With `Cc1ccnc(-c2nc3cc(F)cc(F)c3c(Nc3cc(N4CCOCC4)cnc3N3CCOCC3)c2C)c1` [N-(2,5-di-4-morpholinyl-3-pyridinyl)-5,7-difluoro-3-methyl-2-(4-methyl-2-pyridinyl)-4-quinolinamine], affinity was put at a Ki of 237 nM.

The molecule `Cc1c(-c2cncc(S(C)(=O)=O)c2)nc2cc(F)cc(F)c2c1Nc1cc(N2CCOCC2)cnc1N1CCOCC1` [N-(2,5-di-4-morpholinyl-3-pyridinyl)-5,7-difluoro-3-methyl-2-(5-(methylsulfonyl)-3-pyridinyl)-4-quinolinamine] returned a Ki of 83.8 nM.

`Cc1c(N2CCOCC2)nc2cc(F)cc(F)c2c1Nc1cncc(N2CCOCC2)c1` [5,7-difluoro-3-methyl-2-(4-morpholinyl)-N-(5-(4-morpholinyl)-3-pyridinyl)-4-quinolinamine]: the inhibition constant (Ki) came out at 55.7 nM.

`Cc1c(-c2ccc(N3CCOCC3)nc2)nc2cc(F)cc(F)c2c1Nc1cc(N2CCOCC2)cnc1N1CCOCC1` [N-(2,5-di-4-morpholinyl-3-pyridinyl)-5,7-difluoro-3-methyl-2-(6-(4-morpholinyl)-3-pyridinyl)-4-quinolinamine] showed a Ki of 67.5 nM.

The molecule `Cc1c(-c2ccccn2)nc2cc(F)cc(F)c2c1Nc1cc(N2CCOCC2)ccc1C1=CCOCC1` [N-(2-(3,6-dihydro-2H-pyran-4-yl)-5-(4-morpholinyl)phenyl)-5,7-difluoro-3-methyl-2-(2-pyridinyl)-4-quinolinamine] gave a Ki of 7.65 nM.

`COc1cncc(-c2ncc(N3CCOCC3)cc2Nc2c(C)c(-c3ccccn3)nc3cc(F)cc(F)c23)c1` [N-(5,7-difluoro-3-methyl-2-(2-pyridinyl)-4-quinolinyl)-5′-methoxy-5-(4-morpholinyl)-2,3′-bipyridin-3-amine]: the Ki amounted to 0.512 nM.

On to `Cc1c(N2CCN(S(=O)(=O)CC(C)C)CC2)nc2cc(F)cc(F)c2c1Nc1cncc(N2CCOCC2)c1` [5,7-difluoro-3-methyl-2-(4-((2-methylpropyl)sulfonyl)-1-piperazinyl)-N-(5-(4-morpholinyl)-3-pyridinyl)-4-quinolinamine], for which the Ki is 71.3 nM.

On to `Cc1c(N2CCN[C@H](C)C2)nc2cc(F)cc(F)c2c1Nc1cncc(N2CCOCC2)c1` [5,7-difluoro-3-methyl-2-((3R)-3-methyl-1-piperazinyl)-N-(5-(4-morpholinyl)-3-pyridinyl)-4-quinolinamine], for which the Ki is 44.3 nM.

In turn, `Cc1c(N2CCC[C@H]2C(=O)OC(C)(C)C)nc2cc(F)cc(F)c2c1Nc1cncc(N2CCOCC2)c1` [tert-butyl 1-(5,7-difluoro-3-methyl-4-((5-(4-morpholinyl)-3-pyridinyl)amino)-2-quinolinyl)-L-prolinate] returned a Ki of 2.22 nM.

For the molecule `Cc1c(-c2ccc(N3CCNCC3)nc2)nc2cc(F)cc(F)c2c1Nc1cc(N2CCOCC2)cnc1N1CCOCC1` [N-(2,5-di-4-morpholinyl-3-pyridinyl)-5,7-difluoro-3-methyl-2-(6-(1-piperazinyl)-3-pyridinyl)-4-quinolinamine], the Ki worked out at 56.3 nM.

Molecule `Cc1c(N2CCC[C@@H]2C(=O)O)nc2cc(F)cc(F)c2c1Nc1cncc(N2CCOCC2)c1` [1-(5,7-difluoro-3-methyl-4-((5-(4-morpholinyl)-3-pyridinyl)-amino)-2-quinolinyl)-D-proline] returned a Ki of 59.9 nM.

The next assay concerns the target T2, p110δ (Homo sapiens, UniProt O00329).
T2 sequence (O00329 1-1044): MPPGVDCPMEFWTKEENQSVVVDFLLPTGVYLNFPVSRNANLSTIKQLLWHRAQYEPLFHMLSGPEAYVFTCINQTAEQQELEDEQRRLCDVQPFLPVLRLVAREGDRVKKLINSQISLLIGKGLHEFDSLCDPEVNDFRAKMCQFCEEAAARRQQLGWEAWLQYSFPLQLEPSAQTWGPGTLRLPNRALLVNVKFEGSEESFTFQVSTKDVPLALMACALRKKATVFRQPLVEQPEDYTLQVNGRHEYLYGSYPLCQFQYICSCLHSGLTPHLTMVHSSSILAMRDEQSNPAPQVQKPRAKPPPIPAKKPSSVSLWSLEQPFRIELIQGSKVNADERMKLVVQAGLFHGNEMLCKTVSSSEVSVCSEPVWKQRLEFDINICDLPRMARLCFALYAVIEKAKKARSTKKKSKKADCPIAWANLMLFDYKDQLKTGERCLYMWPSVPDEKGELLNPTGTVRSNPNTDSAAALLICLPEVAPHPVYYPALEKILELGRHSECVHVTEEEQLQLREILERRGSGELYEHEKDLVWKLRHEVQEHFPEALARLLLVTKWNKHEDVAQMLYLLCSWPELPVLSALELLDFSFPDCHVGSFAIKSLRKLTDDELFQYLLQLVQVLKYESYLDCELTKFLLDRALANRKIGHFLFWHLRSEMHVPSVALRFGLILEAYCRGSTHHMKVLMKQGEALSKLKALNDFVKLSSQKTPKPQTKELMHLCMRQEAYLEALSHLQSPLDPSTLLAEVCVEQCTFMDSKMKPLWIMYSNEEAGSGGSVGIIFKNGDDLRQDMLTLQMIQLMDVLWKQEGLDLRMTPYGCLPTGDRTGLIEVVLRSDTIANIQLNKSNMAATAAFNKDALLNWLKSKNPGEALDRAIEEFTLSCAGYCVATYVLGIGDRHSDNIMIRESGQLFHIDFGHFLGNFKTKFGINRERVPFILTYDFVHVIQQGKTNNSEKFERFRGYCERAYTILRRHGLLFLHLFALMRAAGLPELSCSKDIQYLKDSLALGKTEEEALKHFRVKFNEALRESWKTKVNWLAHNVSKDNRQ
Assay: not given
Conditions: cited from earlier work.
Take `Cc1ccccc1-n1c(Cn2cnc3c(N)ncnc32)nc2cccc(C)c2c1=O` [IC87114]: the “inhibits p110δ” value is on record as “high nanomolar range (triple digit)”.

The subject of the next assay is protein kinases.
Assay: not given
The conditions noted are these: cited from earlier work.
Turning to `Cc1ccccc1-n1c(Cn2cnc3c(N)ncnc32)nc2cccc(C)c2c1=O` [IC87114], the “activity against any protein kinases tested” value is given as “no activity”.

For the next assay, the system named is mouse model of rheumatoid arthritis.
Assay: not given
The conditions noted are these: in vivo; cited from earlier work.
For `O=C1NC(=O)/C(=C\c2ccc3nccnc3c2)S1` [AS 605240], the “efficacy in a mouse model of rheumatoid arthritis” value is given as “efficacious”.

Another assay deals with model of systemic lupus erythematosis.
Assay: not given
The conditions noted are these: in vivo; cited from earlier work.
Regarding `O=C1NC(=O)/C(=C\c2ccc3nccnc3c2)S1` [AS 605240], the “onset of disease in a model of systemic lupus erythematosis” value was “delay onset of disease”.

The subject of the next assay is ovalbumin-induced airway inflammation.
Assay: not given
Conditions: cited from earlier work.
With `Cc1ccccc1-n1c(Cn2cnc3c(N)ncnc32)nc2cccc(C)c2c1=O` [IC87114], the “inflammation and disease in a murine model of asthma” value is “significantly ameliorate inflammation and disease”.

Values taken from patent publication US8940724B2, “Quinoline derivitives and their uses” (Amgen Inc., priority 2009, dated 2015).
